Source: PubChem BioAssay AID1919002 (Molecular Pharmacology Branch, DTP, NCI, 2023)
Where “and” joins values, the source holds several entries; their conditions need not be identical. Equal values may be shown once.

Test system: 743489-274-T-PDC complex spheroid growth
Test: Anticancer human tumor 743489-274-T-PDC patient-derived renal cell carcinoma cell line growth inhibition [AhR]
Settings: for viability, T/C: stronger effect = lower value; active = viability on the fitted dose curve at most 10% of control; inactive = the rest
Summary of the method: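 Spheroids combined tumor cells with HUVEC endothelial cells and human MSCs as stroma. AhR antagonists were paired with standard or investigational drugs, each dosed in half-log steps down from near clinical Cmax, or from 10 microM where Cmax was unknown.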

[1] = curve of first compound, second compound 0.1 µM
[2] = curve of first compound, second compound 0.316 µM
[3] = curve of first compound, second compound 1 µM
[4] = curve of first compound, second compound 3.16 µM
[5] = curve of first compound, second compound 10 µM
[6] = second compound 0.1 µM, first compound 0.0316 µM
[7] = second compound 0.1 µM, first compound 0.1 µM
[8] = second compound 0.1 µM, first compound 0.316 µM
[9] = second compound 0.1 µM, first compound 1 µM
[10] = second compound 0.1 µM, first compound 3.16 µM
[11] = second compound 0.1 µM, first compound 10 µM
[12] = second compound 0.316 µM, first compound 0.0316 µM
[13] = second compound 0.316 µM, first compound 0.1 µM
[14] = second compound 0.316 µM, first compound 0.316 µM
[15] = second compound 0.316 µM, first compound 1 µM
[16] = second compound 0.316 µM, first compound 3.16 µM
[17] = second compound 0.316 µM, first compound 10 µM
[18] = second compound 1 µM, first compound 0.0316 µM
[19] = second compound 1 µM, first compound 0.1 µM
[20] = second compound 1 µM, first compound 0.316 µM
[21] = second compound 1 µM, first compound 1 µM
[22] = second compound 1 µM, first compound 3.16 µM
[23] = second compound 1 µM, first compound 10 µM
[24] = second compound 3.16 µM, first compound 0.0316 µM
[25] = second compound 3.16 µM, first compound 0.1 µM
[26] = second compound 3.16 µM, first compound 0.316 µM
[27] = second compound 3.16 µM, first compound 1 µM
[28] = second compound 3.16 µM, first compound 3.16 µM
[29] = second compound 3.16 µM, first compound 10 µM
[30] = second compound 10 µM, first compound 0.0316 µM
[31] = second compound 10 µM, first compound 0.1 µM
[32] = second compound 10 µM, first compound 0.316 µM
[33] = second compound 10 µM, first compound 1 µM
[34] = second compound 10 µM, first compound 3.16 µM
[35] = second compound 10 µM, first compound 10 µM
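Also: spheroids exposed to agents for 7 days before readout.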
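For viability, T/C in this document: 100% = DMSO vehicle control wells.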

COc1ccc([C@@H](O)c2cc(-c3ncnc4cc(N5CCOCC5)ccc34)c(F)cc2Cl)nn1 + Cc1ccccc1N=Nc1ccc(NC(=O)c2ccnn2C)c(C)c1
2260 nM: IC50 [4]
2610 nM: IC50 [1]
2570 nM: IC50 [2]
inactive: viability, T/C [6] 99.7% | viability, T/C [7] 87.6% | viability, T/C [8] 95.7% | viability, T/C [9] 80.1% | viability, T/C [10] 44.1% | viability, T/C [11] 31.9% | viability, T/C [12] 96.2% | viability, T/C [13] 89.1% | viability, T/C [14] 92.4% | viability, T/C [15] 77.2% | viability, T/C [16] 44.1% | viability, T/C [17] 22.4% | viability, T/C [18] 101% | viability, T/C [19] 87% | viability, T/C [20] 86.5% | viability, T/C [21] 68.9% | viability, T/C [22] 42.2% | viability, T/C [23] 22.8% | viability, T/C [24] 84.5% | viability, T/C [25] 81.5% | viability, T/C [26] 87.5% | viability, T/C [27] 77.7% | viability, T/C [28] 38.4% | viability, T/C [29] 19.1% | viability, T/C [30] 86.2% | viability, T/C [31] 90.2% | viability, T/C [32] 81.5% | viability, T/C [33] 62.2% | viability, T/C [34] 36.1% | viability, T/C [35] 18.8%
1720 nM: IC50 [5]
2340 nM: IC50 [3]

Nc1ccccc1NC(=O)c1ccc(CNC(=O)OCc2cccnc2)cc1 + Cc1cncc(-c2nc(NCCc3c[nH]c4ccccc34)c3ncn(C(C)C)c3n2)c1
6830 nM: IC50 [4]
3120 nM: IC50 [2]
9620 nM: IC50 [5]
2400 nM: IC50 [3]
4640 nM: IC50 [1]
inactive: viability, T/C [6] 104% | viability, T/C [7] 92.7% | viability, T/C [8] 86.5% | viability, T/C [9] 77.7% | viability, T/C [10] 54.2% | viability, T/C [11] 36.6% | viability, T/C [12] 92.2% | viability, T/C [13] 93.1% | viability, T/C [14] 89.4% | viability, T/C [15] 74% | viability, T/C [16] 50.1% | viability, T/C [17] 36.3% | viability, T/C [18] 88.5% | viability, T/C [19] 84.1% | viability, T/C [20] 87.2% | viability, T/C [21] 73.8% | viability, T/C [22] 42.5% | viability, T/C [23] 29.9% | viability, T/C [24] 95.5% | viability, T/C [25] 91.5% | viability, T/C [26] 88.7% | viability, T/C [27] 78.5% | viability, T/C [28] 61.3% | viability, T/C [29] 44.3% | viability, T/C [30] 102% | viability, T/C [31] 102% | viability, T/C [32] 106% | viability, T/C [33] 91.3% | viability, T/C [34] 84.6% | viability, T/C [35] 48.2%

CC1COCCN1c1cc(-c2ccnn2C)c2ccnc(-c3ccn[nH]3)c2n1 (configuration not stated)
> 1000 nM: IC50 (curve of compound)
inactive: viability, T/C (compound 0.00316 µM) 112% and 105% and 104% | viability, T/C (compound 0.01 µM) 106% and 114% and 100% | viability, T/C (compound 0.0316 µM) 101% (2×) and 104% | viability, T/C (compound 0.1 µM) 106% and 102% and 103% | viability, T/C (compound 0.316 µM) 101% and 86.3% and 100% | viability, T/C (compound 1 µM) 85.1% and 68% and 73.8%

Cn1ncnc1C1c2n[nH]c(=O)c3cc(F)cc(c23)NC1c1ccc(F)cc1 (configuration not stated) + CC(CO)NC(=O)c1cc(-c2ccc(Cl)cc2)nn(-c2cnn(C)c2)c1=O
> 100 nM: IC50 [1] | IC50 [2] | IC50 [3] | IC50 [4] | IC50 [5]
inactive: viability, T/C (second compound 0.1 µM, first compound 0.000316 µM) 90.7% | viability, T/C (second compound 0.1 µM, first compound 0.001 µM) 98% | viability, T/C (second compound 0.1 µM, first compound 0.00316 µM) 106% | viability, T/C (second compound 0.1 µM, first compound 0.01 µM) 95% | viability, T/C [6] 89.6% | viability, T/C [7] 86.8% | viability, T/C (second compound 0.316 µM, first compound 0.000316 µM) 85.5% | viability, T/C (second compound 0.316 µM, first compound 0.001 µM) 95.8% | viability, T/C (second compound 0.316 µM, first compound 0.00316 µM) 115% | viability, T/C (second compound 0.316 µM, first compound 0.01 µM) 88% | viability, T/C [12] 80.6% | viability, T/C [13] 84.8% | viability, T/C (second compound 1 µM, first compound 0.000316 µM) 94.1% | viability, T/C (second compound 1 µM, first compound 0.001 µM) 97.6% | viability, T/C (second compound 1 µM, first compound 0.00316 µM) 102% | viability, T/C (second compound 1 µM, first compound 0.01 µM) 87% | viability, T/C [18] 82.7% | viability, T/C [19] 91.8% | viability, T/C (second compound 3.16 µM, first compound 0.000316 µM) 93.9% | viability, T/C (second compound 3.16 µM, first compound 0.001 µM) 92.2% | viability, T/C (second compound 3.16 µM, first compound 0.00316 µM) 91.4% | viability, T/C (second compound 3.16 µM, first compound 0.01 µM) 92.1% | viability, T/C [24] 89.4% | viability, T/C [25] 93.4% | viability, T/C (second compound 10 µM, first compound 0.000316 µM) 83.7% | viability, T/C (second compound 10 µM, first compound 0.001 µM) 86.3% | viability, T/C (second compound 10 µM, first compound 0.00316 µM) 85% | viability, T/C (second compound 10 µM, first compound 0.01 µM) 99% | viability, T/C [30] 90.9% | viability, T/C [31] 83.1%

COc1ccc([C@@H](O)c2cc(-c3ncnc4cc(N5CCOCC5)ccc34)c(F)cc2Cl)nn1 + CC(CO)NC(=O)c1cc(-c2ccc(Cl)cc2)nn(-c2cnn(C)c2)c1=O
inactive: viability, T/C [6] 103% | viability, T/C [7] 96.8% | viability, T/C [8] 92.4% | viability, T/C [9] 86% | viability, T/C [10] 48.8% | viability, T/C [11] 28.8% | viability, T/C [12] 86% | viability, T/C [13] 87.8% | viability, T/C [14] 89.4% | viability, T/C [15] 78.2% | viability, T/C [16] 54% | viability, T/C [17] 25.2% | viability, T/C [18] 87.9% | viability, T/C [19] 89.4% | viability, T/C [20] 88.2% | viability, T/C [21] 77.9% | viability, T/C [22] 50.7% | viability, T/C [23] 25.5% | viability, T/C [24] 92.3% | viability, T/C [25] 81.7% | viability, T/C [26] 87.3% | viability, T/C [27] 73.9% | viability, T/C [28] 45% | viability, T/C [29] 25.7% | viability, T/C [30] 101% | viability, T/C [31] 92% | viability, T/C [32] 93.8% | viability, T/C [33] 79.3% | viability, T/C [34] 45.5% | viability, T/C [35] 20.9%
3680 nM: IC50 [2]
3250 nM: IC50 [3]
3100 nM: IC50 [1]
2730 nM: IC50 [5]
2600 nM: IC50 [4]

CCc1c2c(nc3ccc(O)cc13)-c1cc3c(c(=O)n1C2)COC(=O)[C@]3(O)CC + Cc1cncc(-c2nc(NCCc3c[nH]c4ccccc34)c3ncn(C(C)C)c3n2)c1
inactive: viability, T/C (second compound 0.1 µM, first compound 0.000949 µM) 106% | viability, T/C (second compound 0.1 µM, first compound 0.003 µM) 103% | viability, T/C (second compound 0.1 µM, first compound 0.00949 µM) 97.1% | viability, T/C (second compound 0.1 µM, first compound 0.03 µM) 89.1% | viability, T/C (second compound 0.1 µM, first compound 0.0949 µM) 79.4% | viability, T/C (second compound 0.1 µM, first compound 0.3 µM) 76.6% | viability, T/C (second compound 0.316 µM, first compound 0.000949 µM) 98.8% | viability, T/C (second compound 0.316 µM, first compound 0.003 µM) 95% | viability, T/C (second compound 0.316 µM, first compound 0.00949 µM) 98.5% | viability, T/C (second compound 0.316 µM, first compound 0.03 µM) 82.2% | viability, T/C (second compound 0.316 µM, first compound 0.0949 µM) 69.5% | viability, T/C (second compound 0.316 µM, first compound 0.3 µM) 64.6% | viability, T/C (second compound 1 µM, first compound 0.000949 µM) 102% | viability, T/C (second compound 1 µM, first compound 0.003 µM) 106% | viability, T/C (second compound 1 µM, first compound 0.00949 µM) 110% | viability, T/C (second compound 1 µM, first compound 0.03 µM) 79.9% | viability, T/C (second compound 1 µM, first compound 0.0949 µM) 94.8% | viability, T/C (second compound 1 µM, first compound 0.3 µM) 66.6% | viability, T/C (second compound 3.16 µM, first compound 0.000949 µM) 113% | viability, T/C (second compound 3.16 µM, first compound 0.003 µM) 102% | viability, T/C (second compound 3.16 µM, first compound 0.00949 µM) 98.6% | viability, T/C (second compound 3.16 µM, first compound 0.03 µM) 80.7% | viability, T/C (second compound 3.16 µM, first compound 0.0949 µM) 73.1% | viability, T/C (second compound 3.16 µM, first compound 0.3 µM) 73.9% | viability, T/C (second compound 10 µM, first compound 0.000949 µM) 131% | viability, T/C (second compound 10 µM, first compound 0.003 µM) 135% | viability, T/C (second compound 10 µM, first compound 0.00949 µM) 128% | viability, T/C (second compound 10 µM, first compound 0.03 µM) 102% | viability, T/C (second compound 10 µM, first compound 0.0949 µM) 95% | viability, T/C (second compound 10 µM, first compound 0.3 µM) 68.4%
> 300 nM: IC50 [1] | IC50 [2] | IC50 [3] | IC50 [4] | IC50 [5]
